The values below are quoted from earlier work in patent US5656669A, “Restorative neuropharmacological agent for motor and speech disturbance” (Sumitomo Pharmaceuticals Co., Ltd., priority 1994, dated 1997).

For data set [1] the following is noted: conventional pharmacological features; cited from earlier work.
Data set [2] concerns aromatic L-amino acid decarboxylase. The note with it: by aromatic L-amino acid decarboxylase; conventional pharmacological features; cited from earlier work.

For `N[C@H](C(=O)O)[C@H](O)c1ccc(O)c(O)c1` [threo-DOPS], the “passage through the blood-brain barrier” value in data set [1] is recorded as “passes through the blood-brain barrier into the brain”. Also, the conversion to norepinephrine result in data set [2] is reported as “directly converted to 1-norepinephrine”.
